Numbered stars: 1 amine (or outer) side, 2 acyl side, 3 side chain; on linkers, the order of the positions; unused ones are H or OH. Bridge positions count the residues as written; N and C are the ends. Square brackets hold non-standard residues; d marks the D form. Peptide text beside a SMILES is read from it. * marks the point of attachment. Bip(4'-NHAc) = CC(=O)Nc1ccc(-c2ccc(C[C@H](N)C(=O)O)cc2)cc1; Ala(1H-tetrazol-5-yl) = N[C@@H](Cc1nnn[nH]1)C(=O)O; X24 = COc1ccccc1-c1cn(C[C@H](N[*:1])C(=O)[*:2])nn1; Phe(3-CF3) = N[C@@H](Cc1cccc(C(F)(F)F)c1)C(=O)O; Ala(morpholin-4-yl) = N[C@@H](CN1CCOCC1)C(=O)O; Phe(4-COOH) = N[C@@H](Cc1ccc(C(=O)O)cc1)C(=O)O; Bip = N[C@@H](Cc1ccc(-c2ccccc2)cc1)C(=O)O; Phe(3-Me) = Cc1cccc(C[C@H](N)C(=O)O)c1; Glutaryl = O=C(CCCC(=O)[*:2])[*:1]; hPhe = N[C@@H](CCc1ccccc1)C(=O)O; 4Pal = N[C@@H](Cc1ccncc1)C(=O)O; Cha = N[C@@H](CC1CCCCC1)C(=O)O; Agb = N=C(N)NCC[C@H](N)C(=O)O; Carboxymethyl = O=C(O)C*; NMeA = CN[C@@H](C)C(=O)O; Orn = NCCC[C@H](N)C(=O)O; Dab = NCC[C@H](N)C(=O)O; Dap = NC[C@H](N)C(=O)O
Molecular target: T1, PE-labeled human PD-L1-Ig binding to Jurkat cell line over-expressing human PD-1 (Jurkat-PD-1) (Homo sapiens, UniProt Q15116)
T1 construct: expressed in transfected cells; host or cells: Jurkat
Test: Jurkat-PD-1 Cell Binding High-Content Screening Assay (CBA): Method 1
Conditions: Jurkat-hPD-1 cells, PE-labeled PD-L1-Ig 20 nM final; read-out: Jurkat HPDL1 PD1 IC50 (uM) (Method 1)

T1 sequence (Q15116 25-288): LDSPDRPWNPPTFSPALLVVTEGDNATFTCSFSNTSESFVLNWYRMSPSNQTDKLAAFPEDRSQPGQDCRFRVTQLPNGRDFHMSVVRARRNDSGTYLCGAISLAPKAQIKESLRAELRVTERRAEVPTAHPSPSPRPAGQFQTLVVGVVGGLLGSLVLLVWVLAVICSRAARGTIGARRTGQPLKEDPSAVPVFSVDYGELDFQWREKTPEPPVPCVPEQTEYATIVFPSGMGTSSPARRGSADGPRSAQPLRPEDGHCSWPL

SMILES | IC50
CC[C@H](C)[C@@H]1NC(=O)[C@H](Cc2ccc(-c3ccccc3)cc2)NC(=O)[C@H](C(C)C)NC(=O)[C@H](Cc2c[nH]c3ccccc23)NC(=O)[C@H](CC(=O)O)NC(=O)[C@H](Cc2ccncc2)NC(=O)[C@H](Cc2ccncc2)NC(=O)CSC[C@@H](C(=O)N[C@@H](C)C(N)=O)NC(=O)[C@H]([C@@H](C)O)NC(=O)[C@H](C(C)C)NC(=O)[C@H](CC(C)C)NC(=O)[C@H](CCN)NC(=O)[C@@H](CC(C)C)NC(=O)[C@H](C)N(C)C1=O [Compound 1410] ({CH2CO}-[4Pal][4Pal]DWV[Bip]I[NMeA][dL][Dab]LVTCA-NH2; thioether N-14) | 0.02 µM
Cc1cccc(C[C@@H]2NC(=O)[C@H](CC(=O)O)NC(=O)[C@H](Cc3ccc(O)cc3)NC(=O)[C@H](CC(N)=O)NC(=O)CSC[C@@H](C(=O)N[C@@H](C)C(N)=O)NC(=O)[C@H]([C@@H](C)O)NC(=O)[C@H](C(C)C)NC(=O)[C@H](CC(C)C)NC(=O)[C@H](CCCNC(=N)N)NC(=O)[C@@H](CC(C)C)NC(=O)[C@H](C)N(C)C(=O)[C@H](CCCNC(=N)N)NC(=O)[C@H](Cc3ccc(-c4ccccc4)cc3)NC(=O)[C@H](C(C)C)NC2=O)c1 [Compound 1192] ({CH2CO}-NYD[Phe(3-Me)]V[Bip]R[NMeA][dL]RLVTCA-NH2; thioether N-14) | 0.03 µM
CC(C)C[C@@H]1NC(=O)[C@H](Cc2c[nH]c3ccccc23)NC(=O)[C@H](Cc2nn[nH]n2)NC(=O)[C@H](Cc2ccc(O)cc2)NC(=O)[C@H](Cc2ccccc2)NC(=O)CSC[C@@H](C(=O)N[C@@H](C)C(N)=O)NC(=O)[C@H](CO)NC(=O)[C@H](C(C)C)NC(=O)[C@H](CC(C)C)NC(=O)[C@H](CC(N)=O)NC(=O)[C@@H](CC(C)C)NC(=O)[C@H](C)N(C)C(=O)[C@H](C(C)C)NC(=O)[C@H](Cc2ccc(-c3ccccc3)cc2)NC1=O [Compound 1541] ({CH2CO}-FY[Ala(1H-tetrazol-5-yl)]WL[Bip]V[NMeA][dL]NLVSCA-NH2; thioether N-14) | 0.02 µM
CC(C)C[C@@H]1NC(=O)[C@H](CCCNC(=N)N)NC(=O)[C@@H](CC(C)C)NC(=O)[C@H](C)N(C)C(=O)[C@H](CCCN)NC(=O)[C@H](Cc2ccc(-c3ccccc3)cc2)NC(=O)[C@H](C(C)C)NC(=O)[C@H](Cc2c[nH]c3ccccc23)NC(=O)[C@H](CC(=O)O)NC(=O)[C@H](Cc2ccc(O)cc2)NC(=O)[C@H](Cc2ccccc2)NC(=O)CSC[C@@H](C(=O)N[C@@H](C)C(N)=O)NC(=O)[C@H]([C@@H](C)O)NC(=O)[C@H](C(C)C)NC1=O [Compound 1123] ({CH2CO}-FYDWV[Bip][Orn][NMeA][dL]RLVTCA-NH2; thioether N-14) | 0.06 µM

Molecular target: T2, Alexa fluor-647 labeled human PD-L1-Ig binding to Jurkat cell line over-expressing human PD-1 (Homo sapiens, UniProt Q15116)
T2 construct: expressed in transfected cells; host or cells: Jurkat
Test: Jurkat-PD-1 Cell Binding High-Content Screening Assay (CBA): Method 3 (Alexa fluor-647 labeled PD-L1-Ig)
Conditions: Jurkat-PD-1 cells, Alexa fluor-647 labeled PD-L1-Ig 177 nM; head μM; read-out: CBA Method 3 μM
Procedure: Jurkat-PD-1 Cell Binding High-Content Screening Assay (CBA): Method 3
Alexa fluor-647 was covalently linked to the Ig epitope tag of human PD-L1-Ig and fluorescently labeled PD-L1-Ig was used for the binding studies with a Jurkat cell line over-expressing human PD-1. Briefly, 2.5×10^4 Jurkat-hPD-1 cells were seeded into 384 well plates in 20 μl of RPMI supplemented with 10% fetal calf serum. 12.5 nl of compound was added to cells followed by incubation at 37° C. for 2 hours. Then, 10 ul of Alexa fluor-647 labeled PD-L1-Ig (177 nM final), diluted in RPMI supplemented with 10% fetal calf serum was added to the cells and incubated for 1 hour. Cells were then fixed with 4% paraformaldehyde containing 10 μg/ml Hoechst 33342 and then washed 3× in 100 ul PBS and 100 ul of PBS was added in the final step. Data was collected using the Operetta High Content Imager and the data was analyzed using the columbus software.

T2 sequence (Q15116 25-288): as above

SMILES | IC50
Cc1cccc(C[C@@H]2NC(=O)[C@H](CC(=O)O)NC(=O)[C@H](Cc3ccc(OCC(=O)O)cc3)NC(=O)[C@H](CCNC(=N)N)NC(=O)CSC[C@@H](C(=O)N[C@@H](CCN)C(N)=O)NC(=O)[C@H](CCCN)NC(=O)[C@H](C(C)C)NC(=O)[C@H](CC3CCCCC3)NC(=O)[C@H](CCN)NC(=O)[C@@H](CC(C)C)NC(=O)[C@H](C)N(C)C(=O)[C@H](CCC(N)=O)NC(=O)[C@H](Cc3ccc(-c4ccccc4)cc3)NC(=O)[C@H](Cc3ccc(C(=O)O)cc3)NC2=O)c1 [Example 5182] ({CH2CO}-[Agb]Y(Carboxymethyl)D[Phe(3-Me)][Phe(4-COOH)][Bip]Q[NMeA][dL][Dab][Cha]V[Orn]C[Dab]-NH2; thioether N-14) | 0.01 µM
CC(=O)Nc1ccc(-c2ccc(C[C@@H]3NC(=O)[C@H](Cc4cccc(C(F)(F)F)c4)NC(=O)[C@H](CC(=O)O)NC(=O)[C@H](Cc4ccc(C(=O)O)cc4)NC(=O)[C@H](CN4CCOCC4)NC(=O)CSC[C@@H](C(=O)N[C@@H](CCN)C(N)=O)NC(=O)[C@H](CCC(=O)O)NC(=O)[C@H](C(C)C)NC(=O)[C@H](CC4CCCCC4)NC(=O)[C@H](CCN)NC(=O)[C@@H](CC(C)C)NC(=O)[C@H](C)N(C)C(=O)[C@H](Cc4ccc(C(=O)O)cc4)NC(=O)[C@H](Cc4ccc(-c5ccccc5)cc4)NC3=O)cc2)cc1 [Example 5159] ({CH2CO}-[Ala(morpholin-4-yl)][Phe(4-COOH)]D[Phe(3-CF3)][Bip(4'-NHAc)][Bip][Phe(4-COOH)][NMeA][dL][Dab][Cha]VEC[Dab]-NH2; thioether N-14) | 0.04 µM
COc1ccccc1-c1cn(C[C@@H]2NC(=O)[C@H](Cc3ccc(C(=O)O)cc3)NC(=O)[C@H](Cc3cccc(C(F)(F)F)c3)NC(=O)[C@H](CC(=O)O)NC(=O)[C@H](Cc3ccc(C(=O)O)cc3)NC(=O)[C@H](CN3CCOCC3)NC(=O)CSC[C@@H](C(=O)N[C@@H](CCN)C(N)=O)NC(=O)[C@H](CCC(=O)O)NC(=O)[C@H](C(C)C)NC(=O)[C@H](CC3CCCCC3)NC(=O)[C@H](CCN)NC(=O)[C@@H](CC(C)C)NC(=O)[C@H](C)N(C)C(=O)[C@H](Cc3ccc(C(=O)O)cc3)NC2=O)nn1 [Example 5197] ({CH2CO}-[Ala(morpholin-4-yl)][Phe(4-COOH)]D[Phe(3-CF3)][Phe(4-COOH)][X24][Phe(4-COOH)][NMeA][dL][Dab][Cha]VEC[Dab]-NH2; thioether N-14) | 0.45 µM
CC(C)C[C@H]1NC(=O)[C@H](C)N(C)C(=O)[C@H](Cc2ccc(C(=O)O)cc2)NC(=O)[C@H](Cc2ccc(-c3ccccc3)cc2)NC(=O)[C@H](CCc2ccccc2)NC(=O)[C@H](Cc2cccc(C(F)(F)F)c2)NC(=O)[C@H](CC(=O)O)NC(=O)[C@H](Cc2ccc(C(=O)O)cc2)NC(=O)[C@H](CN2CCOCC2)NC(=O)CSC[C@@H](C(=O)N[C@@H](CCN)C(N)=O)NC(=O)[C@H](CNC(=O)CCCC(=O)O)NC(=O)[C@H](C(C)C)NC(=O)[C@H](CC2CCCCC2)NC(=O)[C@H](CCN)NC1=O [Example 5209] ({CH2CO}-[Ala(morpholin-4-yl)][Phe(4-COOH)]D[Phe(3-CF3)][hPhe][Bip][Phe(4-COOH)][NMeA][dL][Dab][Cha]V[Dap](Glutaryl)C[Dab]-NH2; thioether N-14) | 0.02 µM

Same assay, conditions: Jurkat-PD-1 cells, Alexa fluor-647 labeled PD-L1-Ig 177 nM; nM; read-out: CBA Method 3

SMILES | IC50
CC(C)C[C@H]1NC(=O)[C@H](C)N(C)C(=O)[C@H](Cc2ccc(C(=O)O)cc2)NC(=O)[C@H](Cc2ccc(-c3ccccc3)cc2)NC(=O)[C@H](Cn2cc(C3CC3)nn2)NC(=O)[C@H](Cc2cccc(C(F)(F)F)c2)NC(=O)[C@H](CC(=O)O)NC(=O)[C@H](Cc2ccc(C(=O)O)cc2)NC(=O)[C@H]([C@@H](C)N)NC(=O)CSC[C@@H](C(=O)N[C@@H](CCN)C(N)=O)NC(=O)[C@H](CCC(=O)O)NC(=O)[C@H](C(C)C)NC(=O)[C@H](CC2CCCCC2)NC(=O)[C@H](CCN)NC1=O [Example 5251] | 0.0016 µM
CC(C)C[C@H]1NC(=O)[C@H](C)N(C)C(=O)[C@H](CCC(N)=O)NC(=O)[C@H](Cc2ccc(-c3ccccc3)cc2)NC(=O)[C@H](CCc2ccccc2)NC(=O)[C@H](Cc2cccc(C(F)(F)F)c2)NC(=O)[C@H](CC(=O)N[C@@H](CC(=O)O)C(=O)O)NC(=O)[C@H](Cc2ccc(OCC(=O)O)cc2)NC(=O)[C@H](CN2CCOCC2)NC(=O)CSC[C@@H](C(=O)N[C@@H](CCN)C(N)=O)NC(=O)[C@H](CCCN)NC(=O)[C@H](C(C)C)NC(=O)[C@H](CC2CCCCC2)NC(=O)[C@H](CCN)NC1=O [Example 5280] ({CH2CO}-[Ala(morpholin-4-yl)]Y(Carboxymethyl)D(Asp)[Phe(3-CF3)][hPhe][Bip]Q[NMeA][dL][Dab][Cha]V[Orn]C[Dab]-NH2; thioether N-14) | 0.0046 µM

Source: patent US20240409585A1, “MACROCYCLIC IMMUNOMODULATORS” (priority 2021, published 2024)
